Assay results as given in ChEMBL document CHEMBL1201862, “PubChem BioAssay data set” (2004).
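Compound exposure: 48 hours, 5 concentrations, 96-well plates. GI50 marks 50% less growth.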 The source made the active and inactive calls. Cut-off read from the data, not from the text of the source: active = GI50 up to about 1.1 µM and inactive = higher.

How the values were obtained:
Experiment in all cases: DTP human tumour cell line panel, 48 h
HOP-62 = tested on: HOP-62
LOX IMVI = tested on: LOX IMVI
MDA-N = tested on: MDA-N
SK-OV-3 = tested on: SK-OV-3
EKVX = tested on: EKVX
SK-MEL-5 = tested on: SK-MEL-5
COLO 205 = tested on: COLO 205
DU-145 = tested on: DU-145
HT-29 = tested on: HT-29
SF-539 = tested on: SF-539
HCT-15 = tested on: HCT-15
M14 = tested on: M14
CCRF-CEM = tested on: CCRF-CEM
786-0 = tested on: 786-0
Malme-3M = tested on: Malme-3M
HCC 2998 = tested on: HCC 2998
MDA-MB-231 = tested on: MDA-MB-231
SNB-19 = tested on: SNB-19
UACC-257 = tested on: UACC-257
MOLT-4 = tested on: MOLT-4
TK-10 = tested on: TK-10
SF-268 = tested on: SF-268
KM12 = tested on: KM12
UO-31 = tested on: UO-31
HCT-116 = tested on: HCT-116
SNB-75 = tested on: SNB-75
A498 = tested on: A498
Hs-578T = tested on: Hs-578T
SF-295 = tested on: SF-295
OVCAR-3 = tested on: OVCAR-3
SK-MEL-2 = tested on: SK-MEL-2
MDA-MB-435 = tested on: MDA-MB-435
T47D = tested on: T47D
K562 = tested on: K562
OVCAR-8 = tested on: OVCAR-8
OVCAR-5 = tested on: OVCAR-5
RPMI-8226 = tested on: RPMI-8226
U-251 = tested on: U-251
HL-60 = tested on: HL-60
UACC-62 = tested on: UACC-62
SN12C = tested on: SN12C
SR = tested on: SR
RXF 393 = tested on: RXF 393
IGROV-1 = tested on: IGROV-1
NCI-H226 = tested on: NCI-H226
HOP-92 = tested on: HOP-92
NCI/ADR-RES = tested on: NCI/ADR-RES
NCI-H23 = tested on: NCI-H23
PC-3 = tested on: PC-3
SK-MEL-28 = tested on: SK-MEL-28
BT-549 = tested on: BT-549
MCF7 = tested on: MCF7
SW-620 = tested on: SW-620
OVCAR-4 = tested on: OVCAR-4
A549 = tested on: A549
NCI-H460 = tested on: NCI-H460
ACHN = tested on: ACHN
CAKI-1 = tested on: CAKI-1

Measured: GI50

O=CN(O)CC(=O)O
inactive: HOP-62 > 100 µM | LOX IMVI > 100 µM | MDA-N > 100 µM | SK-OV-3 > 100 µM | EKVX > 100 µM | SK-MEL-5 > 100 µM | COLO 205 > 100 µM | DU-145 > 100 µM | HT-29 > 100 µM | SF-539 > 100 µM | M14 > 100 µM | CCRF-CEM > 100 µM | 786-0 > 100 µM | Malme-3M > 100 µM | HCC 2998 > 100 µM | MDA-MB-231 > 100 µM | SNB-19 > 100 µM | UACC-257 > 100 µM | MOLT-4 > 100 µM | TK-10 > 100 µM | SF-268 > 100 µM | KM12 > 100 µM | UO-31 > 100 µM | HCT-116 > 100 µM | SNB-75 > 100 µM | A498 > 100 µM | Hs-578T > 100 µM | SF-295 > 100 µM | OVCAR-3 > 100 µM | SK-MEL-2 > 100 µM | MDA-MB-435 > 100 µM | T47D > 100 µM | K562 > 100 µM | OVCAR-8 > 100 µM | OVCAR-5 > 100 µM | RPMI-8226 > 100 µM | U-251 > 100 µM | HL-60 > 100 µM | UACC-62 > 100 µM | SN12C > 100 µM | SR > 100 µM | RXF 393 > 100 µM | IGROV-1 > 100 µM | NCI-H226 > 100 µM | HOP-92 > 100 µM | NCI/ADR-RES > 100 µM | NCI-H23 > 100 µM | PC-3 > 100 µM | SK-MEL-28 > 100 µM | BT-549 > 100 µM | MCF7 > 100 µM | SW-620 > 100 µM | OVCAR-4 > 100 µM | A549 > 100 µM | NCI-H460 > 100 µM | ACHN > 100 µM
> 100 µM: HCT-15

O=c1c2c([N+](=O)[O-])cccc2nc2[nH]c3ccccc3n12
53.6 µM: HCT-15
inactive: HOP-62 70.8 µM | LOX IMVI 32.8 µM | MDA-N > 75 µM | SK-OV-3 13.3 µM | EKVX 30.2 µM | SK-MEL-5 35 µM | COLO 205 40.7 µM | DU-145 34 µM | HT-29 63.2 µM | SF-539 13.3 µM | M14 > 75 µM | CAKI-1 14.6 µM | CCRF-CEM > 75 µM | 786-0 29.1 µM | Malme-3M 46 µM | HCC 2998 19.3 µM | MDA-MB-231 14.7 µM | SNB-19 30.9 µM | UACC-257 > 75 µM | MOLT-4 > 75 µM | TK-10 18.7 µM | SF-268 18.7 µM | KM12 32.4 µM | HCT-116 34.1 µM | A498 26.6 µM | Hs-578T 26.5 µM | SF-295 23.1 µM | OVCAR-3 20.7 µM | SK-MEL-2 14.4 µM | MDA-MB-435 > 75 µM | T47D 15 µM | K562 > 75 µM | OVCAR-8 14.5 µM | OVCAR-5 > 75 µM | RPMI-8226 64.1 µM | U-251 20.2 µM | HL-60 > 75 µM | UACC-62 19.5 µM | SN12C 25.6 µM | SR 54.2 µM | RXF 393 13.8 µM | IGROV-1 11.9 µM | NCI-H226 22.3 µM | HOP-92 19.8 µM | NCI/ADR-RES 26.4 µM | NCI-H23 32.9 µM | PC-3 57.8 µM | SK-MEL-28 > 75 µM | BT-549 20.5 µM | MCF7 20.4 µM | SW-620 > 75 µM | OVCAR-4 11.6 µM | A549 40.3 µM | NCI-H460 20.9 µM | ACHN 13.9 µM
